Data published in patent US20110039825A1, “LIGANDS OF ALPHA-ADRENOCEPTORS, DOPAMINE, HISTAMINE, IMIDAZOLINE AND SEROTONIN RECEPTORS AND THEIR USE” (Alla Chem, LLC, priority 2007, published 2011).

How the values were obtained:
human D4.2 receptor = target: T1, human D4.2 receptor (Homo sapiens, UniProt P21917, DEL265-296); assay: radioligand binding to dopamine receptor D4.2 ([3H] Spiperone); details: 10 μM ligand
T1 sequence (P21917 with tags, fused parts or gaps DEL265-296): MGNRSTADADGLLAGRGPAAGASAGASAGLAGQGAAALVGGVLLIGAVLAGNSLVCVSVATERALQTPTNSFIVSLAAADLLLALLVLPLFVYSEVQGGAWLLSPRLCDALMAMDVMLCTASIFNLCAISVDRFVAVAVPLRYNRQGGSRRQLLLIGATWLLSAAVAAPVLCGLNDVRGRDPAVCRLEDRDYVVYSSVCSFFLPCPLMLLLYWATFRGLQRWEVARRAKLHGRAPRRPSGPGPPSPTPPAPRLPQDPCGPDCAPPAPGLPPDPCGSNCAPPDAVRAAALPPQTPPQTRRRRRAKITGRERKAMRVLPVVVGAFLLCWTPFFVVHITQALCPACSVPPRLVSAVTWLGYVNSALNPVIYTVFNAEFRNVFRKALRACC
Description: Screening of the disclosed compounds for potential ability to interact with dopamine receptor D4.2 is carried out by method of radioligand binding. […] From the cells transfected in this way membrane species are prepared by homogenization of these cells in glass homogenizer with the subsequent separation of plasmatic membranes from cell nuclei, mitochondrias and cell wreckages by differential centrifugation. […] After incubation samples are filtered in vacuo on glass-microfiber filters G/F (Millipor, USA), filters are washed three times with cold solution of medium and radioactivity is measured by scintillation counter MicroBeta 340 (Perkin Elmer, USA). Nonspecific binding which makes up 10% of the overall binding is determined by incubation of membrane species with radioligand in the presence of 10 μM of Haloperidol.
Spiperone is used as positive control. Tested compounds' binding to the receptor is determined by their ability to displace radioligand and expressed in percent of displacement (% I). Values of % I are calculated according to the following equation:
wherein: TA—is overall radioactivity in the presence of radioligand only, CA—is radioactivity in the presence of radioligand and tested compound and NA—is radioactivity in the presence of radioligand and Haloperidol (10 μM).

mice = assay: Mice Training in Morris Water Maze (Scopolamine); assay type: in vivo; details: unitary introduction of active ingredient
Description: Mice Training in Morris Water Maze. A round pool which was filled with water at 20-22° C. was used. A round ceramic platform of 14 cm height was placed in the pool. Animals's behavior was registered with automated computer videosystem in combination with software package of movement analysis Any-maze (Stoelting Co., US). Before testing mice suitable for training were selected. That was done by placing the platform 1 cm above the water level and putting an animal on the platform for 20 seconds. Then the mouse was sunk into the water on the opposite side of the pool, allowed to find the platform and climbed it within 60 seconds, where it was left for additional 20 seconds. After that the mouse was repeatedly immersed into water on the opposite side of the pool and allowed to look for platform. If it failed in finding the platform within 60 seconds the experimentator helped it to find the platform and climb it. If the mice could not find the platform itself in two consecutive attempts it was excluded from experiment.
During the next two days the platform was placed 0.5 centimeter lower the water level. Every day the mice were given four attempts for finding the platform within 60 seconds. The time interval between the attempts was 20 seconds, during which the mice stayed on the platform. Every day before the first attempt mouse was placed on the platform for 20 seconds. The time needed for finding and climbing the platform was registered. The animals were sunk in water in 3 different places on the side of the pool opposite to platform. On each day of two-day testing 35-40 minutes before the beginning of training the mice were injected intraintestinally with physiological solution, Scopolamine or Scopolamine in combination with investigated compound. At least 8 animals were used in each group.
On the third day the platform was removed and each animal was placed one time in the pool for a period of 60 seconds. The time each mouse spent in the area where the platform had been located during the previous days was registered. This time interval was regarded as a measure of effectiveness of training fulfilled during the previous two days. The testing was carried out during the day time in isolated laboratory using “white noise” at level of about 70 decibel above the human hearing threshold.

SMILES	Dopamine receptor D4.2, % inhibition (human D4.2 receptor)	memory disorders caused by Scopolamine in Morris water maze (mice)
Cc1ccc2c(c1)[C@@H]1CN(C)CCC[C@@H]1N2CCc1ccc(C)nc1.Cl.Cl.Cl (relative stereo) [1.6.1(2)•3HCl]	−11%	–
Cc1ccc2c(c1)c1c(n2CCc2ccccn2)CCN(C)C1.Cl.Cl [1.1.2(2-3)•2HCl]	–	decreasing memory disorders coused by Scopalomine
Cc1ccc2c(c1)[C@H]1CN(C)CCC[C@@H]1N2CCc1cccnc1 [1.6.2(10)•3HCl]	5%	–
